Measurements: ChEMBL document CHEMBL3868608, “Discovery of 1,3-diethyl-7-methyl-8-(phenoxymethyl)-xanthine derivatives as novel adenosine A1 and A2A receptor antagonists” (Bioorg Med Chem Lett, 2016)

How the values were obtained:
[1] = molecular target: T1, Adenosine receptor A2a (Rattus norvegicus, UniProt P30543); assay: Displacement of [3H]NECA from adenosine receptor A2A in Sprague-Dawley rat striatal membranes after 60 mins by liquid scintillation counting; design: species or system Striatum, Membrane
[2] = molecular target: T2, Adenosine receptor A1 (Rattus norvegicus, UniProt P25099); assay: Displacement of [3H]DPCPX from adenosine receptor A1 in Sprague-Dawley rat whole brain membranes after 60 mins in presence of GTP by liquid scintillation counting method; design: species or system Membrane
T2 sequence (P25099 whole entry): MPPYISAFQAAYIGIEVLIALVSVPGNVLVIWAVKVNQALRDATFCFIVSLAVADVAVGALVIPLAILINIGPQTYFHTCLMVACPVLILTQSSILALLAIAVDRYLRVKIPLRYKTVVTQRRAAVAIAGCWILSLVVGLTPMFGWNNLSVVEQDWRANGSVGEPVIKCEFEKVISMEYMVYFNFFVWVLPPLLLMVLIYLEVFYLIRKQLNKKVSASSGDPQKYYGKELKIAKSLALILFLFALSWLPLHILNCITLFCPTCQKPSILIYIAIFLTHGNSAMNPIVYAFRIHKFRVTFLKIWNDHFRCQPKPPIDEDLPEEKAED

[3] = molecular target: T2, Adenosine receptor A1; assay: Displacement of [3H]DPCPX from adenosine receptor A1 in Sprague-Dawley rat whole brain cell membranes after 60 mins by liquid scintillation counting
[4] = test system: brain; assay: Selectivity index, ratio of Ki for adenosine receptor A2A in Sprague-Dawley rat striatal membranes to Ki for adenosine receptor A1 in Sprague-Dawley rat whole brain cell membranes; assay type: cell-based
[5] = molecular target: T1, Adenosine receptor A2a; assay: Displacement of [3H]NECA from adenosine receptor A2A in rat striatal membranes

T1 sequence (P30543 whole entry): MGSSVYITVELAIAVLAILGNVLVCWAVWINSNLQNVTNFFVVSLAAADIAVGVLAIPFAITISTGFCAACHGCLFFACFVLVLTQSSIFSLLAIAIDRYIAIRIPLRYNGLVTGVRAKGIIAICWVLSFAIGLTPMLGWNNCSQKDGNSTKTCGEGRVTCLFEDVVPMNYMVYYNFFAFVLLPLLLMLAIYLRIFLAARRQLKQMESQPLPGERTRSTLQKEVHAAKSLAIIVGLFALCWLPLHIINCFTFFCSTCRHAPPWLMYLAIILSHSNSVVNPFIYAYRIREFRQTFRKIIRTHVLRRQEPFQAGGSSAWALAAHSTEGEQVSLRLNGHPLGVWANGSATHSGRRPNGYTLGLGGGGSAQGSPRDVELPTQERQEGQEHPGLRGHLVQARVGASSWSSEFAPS

SMILES	Ki [1] [µM]	Ki [2] [µM]	Ki [3] [µM]	Ki [5] [µM]	Ratio Ki [4]
CCn1c(=O)c2c(ncn2C)n(CC)c1=O	2.69		5.61		0.5
CCn1c(=O)c2c(nc(COc3ccccc3)n2C)n(CC)c1=O		0.892			
Cc1ccc(OCc2nc3c(c(=O)n(C)c(=O)n3C)n2C)cc1	3.64		6.76		0.5
Cn1c(=O)c2c(nc(COc3ccc(Br)cc3)n2C)n(C)c1=O	1.73		3.69		0.5
COc1ccc(OCc2nc3c(c(=O)n(C)c(=O)n3C)n2C)cc1	2.4		4.67		0.5
Cn1c(=O)c2c(nc(COc3ccc(F)cc3)n2C)n(C)c1=O	2.57		9.19		0.3

Continued by falling Ki [1], values first:

Ki [1] [µM]	Ki [2] [µM]	Ki [3] [µM]	Ki [5] [µM]	SMILES	Ratio Ki [4]
1.36	0.267	0.264		CCn1c(=O)c2c(nc(COc3ccc(Br)cc3)n2C)n(CC)c1=O	
1.3		1.42		CCn1c(=O)c2c(nc(COc3ccc(C)cc3)n2C)n(CC)c1=O	0.9
1.04		0.974		CCn1c(=O)c2c(nc(COc3ccc(Cl)cc3)n2C)n(CC)c1=O	1.1
0.94		5.56		Cn1c(=O)c2c(nc(COc3ccc(Cl)cc3)n2C)n(C)c1=O	0.2
0.841		1.23		CCn1c(=O)c2c(nc(COc3ccc(F)cc3)n2C)n(CC)c1=O	0.7
0.237		1.22	0.237	CCn1c(=O)c2c(nc(COc3ccc(OC)cc3)n2C)n(CC)c1=O	
